Test results: ChEMBL document CHEMBL4433261, “Synthesis of peptidomimetics and chemo-biological tools for CD95/PLCγ1 interaction analysis” (Bioorg Med Chem Lett, 2019)
Activity calls are given as the source filed them. The rule behind the calls is not given here.

Legend:
[1] = Inhibition of human full length HA-tagged CD95/human full length Myc-tagged PLCgamma1 protein-protein interaction transfected in HEK293T cells incubated for 4 hrs by renilla luciferase based protein-fragment complementation assay; type: cell-based
Homo sapiens = species on record: Homo sapiens; assay: Selectivity ratio of IC50 for human full length HA-tagged CD95/FADD (unknown origin) protein-protein interaction to IC50 for human full length HA-tagged CD95/human full length Myc-tagged PLCgamma1 protein-protein interaction
[2] = Inhibition of human full length HA-tagged CD95/FADD (unknown origin) protein-protein interaction transfected in HEK293T cells incubated for 4 hrs by renilla luciferase based protein-fragment complementation assay; type: cell-based
CCRF-CEM = assay: Cytotoxicity in human CEM cells assessed as reduction in cell viability incubated for 24 hrs by MTT assay; type: cell-based
[3] = molecular target: T1, Tumor necrosis factor receptor superfamily member 6 (Homo sapiens) (UniProt P25445); assay: Inhibition of s-CD95L(unknown origin)-stimulated cell migration of human Th17 cells at 10 uM incubated for 24 hrs by Boyden chambers assay
T1 sequence (whole entry): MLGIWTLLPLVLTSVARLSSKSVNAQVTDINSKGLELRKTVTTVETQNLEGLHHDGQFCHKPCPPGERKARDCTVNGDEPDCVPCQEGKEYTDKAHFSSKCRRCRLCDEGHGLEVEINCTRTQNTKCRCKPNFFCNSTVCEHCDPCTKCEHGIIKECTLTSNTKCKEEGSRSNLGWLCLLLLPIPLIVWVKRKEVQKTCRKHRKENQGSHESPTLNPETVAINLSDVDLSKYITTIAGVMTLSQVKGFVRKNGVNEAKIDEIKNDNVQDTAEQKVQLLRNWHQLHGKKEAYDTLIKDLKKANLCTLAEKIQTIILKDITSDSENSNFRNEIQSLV

[4] = molecular target: T1, Tumor necrosis factor receptor superfamily member 6 (Homo sapiens); assay: Inhibition of s-CD95L(unknown origin)-stimulated cell migration of human MDA-MB-231 cells at 10 uM incubated for 24 hrs by Boyden chambers assay; type: cell-based
[5] = molecular target: T1, Tumor necrosis factor receptor superfamily member 6 (Homo sapiens); assay: Inhibition of s-CD95L(unknown origin)-stimulated cell migration of human MDA-MB-231 cells at 10 uM incubated for 24 hrs by Giemsa-staining based assay
[6] = Half life in human whole blood; type: ADME, tissue-based
[7] = molecular target: T1, Tumor necrosis factor receptor superfamily member 6 (Homo sapiens); assay: Inhibition of s-CD95L(unknown origin)-stimulated cell migration of human MDA-MB-231 cells at 1 uM incubated for 24 hrs by Giemsa-staining based assay
[8] = molecular target: T1, Tumor necrosis factor receptor superfamily member 6 (Homo sapiens); assay: Inhibition of s-CD95L(unknown origin)-stimulated cell migration of human Th17 cells at 1 uM incubated for 24 hrs by Boyden chambers assay
[9] = molecular target: T1, Tumor necrosis factor receptor superfamily member 6 (Homo sapiens); assay: Inhibition of s-CD95L(unknown origin)-stimulated cell migration of human MDA-MB-231 cells at 1 uM incubated for 24 hrs by Boyden chambers assay; type: cell-based
[10] = molecular target: T2, 1-phosphatidylinositol 4,5-bisphosphate phosphodiesterase gamma-1 (Homo sapiens, UniProt P19174); assay: (§1) Binding affinity to human full length Myc-tagged PLCgamma1 transfected in HEK293T cells by pull down assay; type: cell-based
T2 sequence (P19174 whole entry): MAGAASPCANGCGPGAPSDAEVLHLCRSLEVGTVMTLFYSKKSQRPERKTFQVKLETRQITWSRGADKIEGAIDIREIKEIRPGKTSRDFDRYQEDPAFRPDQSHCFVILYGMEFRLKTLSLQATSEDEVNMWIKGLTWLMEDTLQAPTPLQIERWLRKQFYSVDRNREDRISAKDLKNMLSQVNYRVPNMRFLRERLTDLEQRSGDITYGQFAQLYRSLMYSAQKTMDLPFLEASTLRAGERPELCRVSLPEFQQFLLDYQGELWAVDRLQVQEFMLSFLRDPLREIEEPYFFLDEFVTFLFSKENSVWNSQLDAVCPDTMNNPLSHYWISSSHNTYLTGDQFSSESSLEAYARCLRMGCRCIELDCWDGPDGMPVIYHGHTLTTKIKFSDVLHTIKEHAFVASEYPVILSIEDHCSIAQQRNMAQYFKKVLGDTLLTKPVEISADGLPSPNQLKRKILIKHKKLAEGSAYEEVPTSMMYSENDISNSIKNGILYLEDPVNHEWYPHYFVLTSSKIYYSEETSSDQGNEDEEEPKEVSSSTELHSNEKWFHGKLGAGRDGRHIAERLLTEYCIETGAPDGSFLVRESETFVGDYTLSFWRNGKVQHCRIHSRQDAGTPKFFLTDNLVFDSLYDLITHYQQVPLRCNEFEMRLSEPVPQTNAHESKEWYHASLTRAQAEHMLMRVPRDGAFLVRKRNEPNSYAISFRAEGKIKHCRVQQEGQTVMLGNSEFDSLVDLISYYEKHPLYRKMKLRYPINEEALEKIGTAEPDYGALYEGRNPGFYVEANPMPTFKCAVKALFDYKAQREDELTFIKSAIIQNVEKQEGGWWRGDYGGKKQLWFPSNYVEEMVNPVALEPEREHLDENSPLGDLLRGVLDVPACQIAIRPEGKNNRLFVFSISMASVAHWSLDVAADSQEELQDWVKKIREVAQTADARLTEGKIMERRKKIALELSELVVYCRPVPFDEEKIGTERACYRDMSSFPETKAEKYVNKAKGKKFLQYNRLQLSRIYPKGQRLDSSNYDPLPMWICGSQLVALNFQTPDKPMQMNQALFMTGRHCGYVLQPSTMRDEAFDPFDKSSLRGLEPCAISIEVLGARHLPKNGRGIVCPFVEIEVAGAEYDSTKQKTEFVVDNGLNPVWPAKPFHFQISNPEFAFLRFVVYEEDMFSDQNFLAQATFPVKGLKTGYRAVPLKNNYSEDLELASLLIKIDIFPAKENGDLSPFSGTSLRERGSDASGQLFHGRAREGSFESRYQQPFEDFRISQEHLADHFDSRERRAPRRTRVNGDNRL

[11] = molecular target: T3, 1-phosphatidylinositol 4,5-bisphosphate phosphodiesterase gamma-1 (Homo sapiens) (UniProt P19174); assay: as §1; type: cell-based
T3 sequence (whole entry): T2 sequence (P19174 whole entry)

Compound | IC50 [1] | Ratio IC50 (Homo sapiens) | IC50 ([2]; read-out: IC50) | further results
N=C(N)NCCCCC(=O)N(CCNC(=O)[C@@H](N)CS)[C@@H](CCCCN)C(=O)NCCN(C(=O)CCc1c[nH]cn1)[C@@H](CCCNC(=N)N)C(=O)NCCNC(=O)CCCCCN | 400 µM | 1.1 | 448 µM | 
CCCCCCCCCCCCCCCCCC(=O)N(CCN)[C@@H](CCCNC(=N)N)C(=O)NCCN(C(=O)CCCCCN)[C@@H](Cc1c[nH]cn1)C(=O)NCCN(C(=O)CCCCNC(=N)N)[C@@H](CCCCN)C(N)=O.O=C(O)C(F)(F)F.O=C(O)C(F)(F)F.O=C(O)C(F)(F)F.O=C(O)C(F)(F)F.O=C(O)C(F)(F)F | 35 µM | 1.1 | 39 µM | Activity (CCRF-CEM): Toxic
C[C@@H](O)[C@H](N)C(=O)NCCN(C(=O)CCS)[C@@H](CCCNC(=N)N)C(=O)NCCN(C(=O)CCCCCN)[C@@H](Cc1c[nH]cn1)C(=O)NCCN(C(=O)CCCCNC(=N)N)[C@@H](CCCCN)C(N)=O | 77 µM | > 100 |  | inhibition [3]: Active; inhibition [4]: Active; inhibition [5]: Active; half-life [6]: 660 to 666 min; IC50 [2]: Not Active
C[C@@H](O)CC(=O)N(CCN)[C@@H](CS)C(=O)NCCN(C(=O)CCCCNC(=N)N)[C@@H](CCCCN)C(=O)NCCN(C(=O)CCc1c[nH]cn1)[C@@H](CCCNC(=N)N)C(=O)NCCNC(=O)CCCCCN | 229 µM | 1.4 | 319 µM | 
H-TCRKHRK-OH | 35 µM | > 100 |  | inhibition [7]: Active; half-life [6]: 180 to 204 min; inhibition [8]: Active; inhibition [9]: Active; IC50 [2]: Not Active
C[C@@H](O)CC(=O)N[C@@H](CS)C(=O)NCCN(C(=O)CCCCNC(=N)N)[C@@H](CCCCN)C(=O)NCCN(C(=O)CCc1c[nH]cn1)[C@@H](CCCNC(=N)N)C(=O)NCCNC(=O)CCCCCN | 308 µM | 2 | 629 µM | 
C[C@@H](O)[C@H](NC(=O)CCCC[C@@H]1SC[C@@H]2NC(=O)N[C@@H]21)C(=O)NCCN(C(=O)CCS)[C@@H](CCCNC(=N)N)C(=O)NCCN(C(=O)CCCCCN)[C@@H](Cc1c[nH]cn1)C(=O)NCCN(C(=O)CCCCNC(=N)N)[C@@H](CCCCN)C(N)=O |  |  |  | EC50 [10]: 25 to 50 µM
N=C(N)NCCCCC(=O)N(CCNC(=O)[C@H](Cc1c[nH]cn1)N(CCNC(=O)[C@H](CCCNC(=N)N)N(CCN)C(=O)CCS)C(=O)CCCCCN)[C@@H](CCCCN)C(N)=O | 75 µM | 50 | 3800 µM | inhibition [3]: Active; inhibition [4]: Active; inhibition [5]: Active
N=C(N)NCCCCC(=O)N(CCNC(=O)[C@H](Cc1c[nH]cn1)N(CCNC(=O)[C@H](CCCNC(=N)N)N(CCN)C(=O)CCCC[C@@H]1SC[C@@H]2NC(=O)N[C@@H]21)C(=O)CCCCCN)[C@@H](CCCCN)C(N)=O |  |  |  | Activity [11]: Active
